The test system of one data set is JNK1. Nature of the data set: Western blot of proximal ascending aorta: JNK1 activation (Examples 6-8). Type of data set: in vivo, mice. The text has this:
(§1) All mice were cared for under strict compliance with the Animal Care and Use Committee of the Johns Hopkins University School of Medicine. The Smad4 haploinsufficient mice were a generous gift from Dr. Chuxia Deng (NIH/NIDDK, Bethesda). The Fbn1^C1039G/+ line was maintained on a C57BL/6 background, allowing for valid comparisons. In order to further accommodate the potential for temporal- or background-specific variation in genetic or pharmacological manipulation experiments, all comparisons were made between contemporary littermates. Mice were checked daily for death and all mice found dead were immediately necropsied to assess for evidence of aortic dissection. Mice were killed with an inhalation overdose of halothane (Sigma-Aldrich, St. Louis). […] Following PBS infusion, mice analyzed for aortic histology had latex injected under low pressure into the left ventricular apex until it was visible in the descending abdominal aorta. […]
(§2) Protein was extracted using the reagents and protocol from a Total Protein Extraction Kit, in conjunction with a Protein Phosphatase Inhibitor Cocktail (Millipore, MA). […] Equal protein loading of samples was determined by a protein assay (BioRad, CA) and confirmed by probing with antibodies against β-Actin or GAPDH (Sigma, Mo.). […]
In general terms: In western blotting, separated proteins are transferred to a membrane and probed.

For data set [1], the system named is S4^+/−:Fbn1^C1039G/+ mice. Nature of the data set: Survival (premature death due to aortic dissection). The class given is in vivo. The text has this:
All mice were cared for under strict compliance with the Animal Care and Use Committee of the Johns Hopkins University School of Medicine. The Smad4 haploinsufficient mice were a generous gift from Dr. Chuxia Deng (NIH/NIDDK, Bethesda). The Fbn1^C1039G/+ line was maintained on a C57BL/6 background, allowing for valid comparisons. In order to further accommodate the potential for temporal- or background-specific variation in genetic or pharmacological manipulation experiments, all comparisons were made between contemporary littermates. Mice were checked daily for death and all mice found dead were immediately necropsied to assess for evidence of aortic dissection. Mice were killed with an inhalation overdose of halothane (Sigma-Aldrich, St. Louis). Mice underwent immediate laparotomy, descending abdominal aortic transection, and PBS (pH 7.4) infusion through the left ventricle to flush out the blood. For Western blot analysis, the proximal ascending aorta (root to right brachiocephalic trunk) was removed, flash frozen in liquid nitrogen and stored at −80° C. Following PBS infusion, mice analyzed for aortic histology had latex injected under low pressure into the left ventricular apex until it was visible in the descending abdominal aorta. The mice were then fixed for 24 hours in 10% buffered formalin, after which the heart and aorta were removed and stored in 70% ethanol. […]

For a further data set, the system named is ERK1/2. Kind of data set: Western blot of proximal ascending aorta: ERK1/2 activation (Examples 6-8). The class given is in vivo, mice.
Excerpt: (§3) All mice were cared for under strict compliance with the Animal Care and Use Committee of the Johns Hopkins University School of Medicine. The Smad4 haploinsufficient mice were a generous gift from Dr. Chuxia Deng (NIH/NIDDK, Bethesda). The Fbn1^C1039G/+ line was maintained on a C57BL/6 background, allowing for valid comparisons. In order to further accommodate the potential for temporal- or background-specific variation in genetic or pharmacological manipulation experiments, all comparisons were made between contemporary littermates. Mice were checked daily for death and all mice found dead were immediately necropsied to assess for evidence of aortic dissection. Mice were killed with an inhalation overdose of halothane (Sigma-Aldrich, St. Louis). Mice underwent immediate laparotomy, descending abdominal aortic transection, and PBS (pH 7.4) infusion through the left ventricle to flush out the blood. For Western blot analysis, the proximal ascending aorta (root to right brachiocephalic trunk) was removed, flash frozen in liquid nitrogen and stored at −80° C. Following PBS infusion, mice analyzed for aortic histology had latex injected under low pressure into the left ventricular apex until it was visible in the descending abdominal aorta. The mice were then fixed for 24 hours in 10% buffered formalin, after which the heart and aorta were removed and stored in 70% ethanol.
(§4) Mouse monoclonal TGFβNAb (1d11; R&D Systems, Minneapolis) was reconstituted in PBS and administered via intraperitoneal injection 3 times a week at a dose of 5 mg/kg. Treatment was initiated at 1 month of age and continued for 2 months. IgG (Zymed Laboratories Inc, San Francisco) was reconstituted in PBS, and administered at a dose of 10 mg/kg as a control. […]
as §2

In a further data set the test system is Fbn1^C1039G/+ mice. Nature of the data set: Aortic root and ascending aortic growth by echocardiography (Examples 6-8). The class given is in vivo.
Excerpt: as §3
(§5) Mouse monoclonal TGFβNAb (1d11; R&D Systems, Minneapolis) was reconstituted in PBS and administered via intraperitoneal injection 3 times a week at a dose of 5 mg/kg. Treatment was initiated at 1 month of age and continued for 2 months. IgG (Zymed Laboratories Inc, San Francisco) was reconstituted in PBS, and administered at a dose of 10 mg/kg as a control. SP600125 (Sigma-Aldrich, St. Louis) was reconstituted in 10% DMSO dissolved in PBS, and administered twice daily by intraperitoneal injection, at a dose of 30 mg/kg. Treatment was initiated at 1 month of age and continued for 2 months. 10% DMSO dissolved in PBS was administered as a control. RDEA119 was reconstituted in 10% 2-hydroxypropyl-beta-cyclodextrin (Sigma-Aldrich, St. Louis) dissolved in PBS, and administered twice daily by oral gavage at a dose of 25 mg/kg. Treatment was initiated at 2 months of age and continued for 2 months. 10% 2-hydroxypropyl-beta-cyclodextrin dissolved in PBS was administered as a control. Fasudil was dissolved in drinking water, and administered at a dose of 1 mg/kg body weight per day. Treatment was initiated at 2 months of age and continued for 4 months. Drinking water was administered as a control.
Nair hair removal cream was used on all mice the day prior to echocardiography. All echocardiograms were performed on awake, unsedated mice using the Visualsonics Vevo 660 V1.3.6 imaging system and a 30 MHz transducer. The aorta was imaged using a parasternal long axis view. Three separate measurements of the maximal internal systolic dimension at the sinus of Valsalva and proximal ascending aorta were made, and a mean was calculated. All imaging and measurements were performed by a cardiologist who was blinded to genotype and treatment arm. In the TGFβNAb and SP600125 trials, mice were imaged at 1 month (baseline) and 3 months of age, after which they were killed. In the RDEA119 trial, mice were imaged at 2 months (baseline) and 4 months of age, after which they were killed. In the fasudil trial, mice were imaged at 2 months (baseline) and 6 months of age, after which they were killed. Smad4 haploinsufficient mice were imaged at 1 month, and then every 2 months thereafter, until death or sacrifice.

The test system of data set [2] is S4^+/−:Fbn1^C1039G/+ mice. Nature of the data set: Aortic root and ascending aortic growth by echocardiography, Smad4 haploinsufficient MFS mice. Type of data set: in vivo.
Excerpt: as §3
as §5, with “Drinking water was administered as a control.” left out
(§6) Nair hair removal cream was used on all mice the day prior to echocardiography. […] Three separate measurements of the maximal internal systolic dimension at the sinus of Valsalva and proximal ascending aorta were made, and a mean was calculated. […]

Data set [3] concerns abdominal aortic aneurysm induced by the periaortic application of calcium chloride. The following applies: prior work (Yoshimura et al. 2005), in association with reduced JNK1 activation; cited from earlier work.
The test system of the next data set is p38. Kind of data set: Western blot of proximal ascending aorta: p38 activation (Examples 6-8). Type of data set: in vivo. The conditions noted are these: Fbn1^C1039G/+ mice, RDEA119 trial, FIG. 16D.
Excerpt: as §1, §2

The nature of data set [4]: Body weight at the end of the two month RDEA119 trial. The conditions noted are these: WT or Fbn1^C1039G/+ mice, FIG. 25. The class given is in vivo. As for the experimental part:
Mouse monoclonal TGFβNAb (1d11; R&D Systems, Minneapolis) was reconstituted in PBS and administered via intraperitoneal injection 3 times a week at a dose of 5 mg/kg. Treatment was initiated at 1 month of age and continued for 2 months. IgG (Zymed Laboratories Inc, San Francisco) was reconstituted in PBS, and administered at a dose of 10 mg/kg as a control. SP600125 (Sigma-Aldrich, St. Louis) was reconstituted in 10% DMSO dissolved in PBS, and administered twice daily by intraperitoneal injection, at a dose of 30 mg/kg. Treatment was initiated at 1 month of age and continued for 2 months. 10% DMSO dissolved in PBS was administered as a control. RDEA119 was reconstituted in 10% 2-hydroxypropyl-beta-cyclodextrin (Sigma-Aldrich, St. Louis) dissolved in PBS, and administered twice daily by oral gavage at a dose of 25 mg/kg. Treatment was initiated at 2 months of age and continued for 2 months. 10% 2-hydroxypropyl-beta-cyclodextrin dissolved in PBS was administered as a control. Fasudil was dissolved in drinking water, and administered at a dose of 1 mg/kg body weight per day. Treatment was initiated at 2 months of age and continued for 4 months. Drinking water was administered as a control. […]

The next data set deals with WT mice. Kind of data set: Aortic root growth by echocardiography, WT mice (Examples 6-8). Type of data set: in vivo.
Excerpt: as §3, §4, §6

For the next data set, the system named is ERK5. Kind of data set: Western blot of proximal ascending aorta: ERK5 activation (Examples 6-8). Type of data set: in vivo. The conditions noted are these: Fbn1^C1039G/+ mice, RDEA119 trial, FIG. 16D.
Excerpt: as §1, §2

Another data set deals with Smad2. Nature of the data set: Western blot of proximal ascending aorta: Smad2 activation (Examples 6-8). Type of data set: in vivo. The conditions noted are these: Fbn1^C1039G/+ mice, RDEA119 trial, FIG. 16D.
Excerpt: as §1, §2

[5] abbreviates: WT and Fbn1^C1039G/+ mice after two weeks of therapy, FIG. 24.
Setting [6] is: 30 mg/kg twice daily i.p., 1 to 3 months of age, FIG. 23A.
Where [7] appears, read: Fbn1^C1039G/+ mice, RDEA119 trial, FIG. 16D.
Setting [8] is: 25 mg/kg twice daily oral gavage, 2 to 4 months of age, FIG. 16C.
[9] abbreviates: RDEA119 trial, 2 months of treatment.

Entries after “also recorded” stand apart in the source; their conditions may differ.

The values below come from patent US20140148498A1, “METHODS AND COMPOSITIONS FOR THE TREATMENT OF MARFAN SYNDROME AND ASSOCIATED DISORDERS” (THE JOHNS HOPKINS UNIVERSITY, priority 2011, published 2014).

On to `O=C1c2ccccc2-c2n[nH]c3cccc1c23` [SP600125], for which, in the data set on JNK1 (setting [5]), the JNK1 activation result is “significant reduction in JNK1 activation; also recorded: reduction of JNK1 activation to levels below baseline”. For the same compound, the “Mice still alive at 3 months of age” value in data set [1] (50% of placebo-treated had died) is “all”. Moreover, the “Premature death due to aortic dissection” value in data set [1] (FIG. 23B) is listed as “prevention of premature death; also recorded: prevented the premature death”. Besides, the ERK1/2 activation result in the data set on ERK1/2 (setting [5]) is on record as “no change in ERK1/2 activation; also recorded: remained unaffected”. Moreover, in the data set with Fbn1^C1039G/+ mice (setting [6]), the “Final absolute aortic root diameter” value is listed as 1.97+/−0.16 mm and the “Final absolute ascending aortic diameter” value was 1.38+/−0.06 mm. Moreover, the Aortic root growth entry with Fbn1^C1039G/+ mice (SP600125 trial, versus placebo) was “decreased aortic root growth; also recorded: ameliorated their aortic root growth”. For the same compound, in data set [2] (setting [6]), the “Final absolute aortic root diameter” value is 2.09+/−0.16 mm and the “Final absolute ascending aortic diameter” value is on record as 1.47+/−0.14 mm. In addition, in data set [2] (SP600125 trial, versus placebo), the Aortic root growth result is listed as “decreased aortic root growth; also recorded: significant reduction” and the Ascending aortic growth result was “reduced ascending aortic growth; also recorded: significant reduction”. Further, the Abdominal aortic aneurysm entry in data set [3] is “ameliorate abdominal aortic aneurysm”.

On to `COc1cc(F)c(F)c(Nc2ccc(I)cc2F)c1NS(=O)(=O)C1(C[C@H](O)CO)CC1` [RDEA119], for which the p38 activation result in the data set on p38 is “unchanged”. For the same compound, the “Weight (somatic growth) at the end of the two month trial” value in data set [4] is on record as “does not significantly affect somatic growth; also recorded: did not significantly affect the weight”. Further, the JNK1 activation entry in the data set with JNK1 (setting [7]) is reported as “unchanged”. Moreover, the ERK1/2 activation result with ERK1/2 (setting [7]) is given as “selective reduction in pERK1/2 signaling; also recorded: significant reduction in ERK1/2 activation”. Moreover, the “Final absolute aortic root diameter” value in the data set with Fbn1^C1039G/+ mice (setting [8]) was 1.94+/−0.07 mm; in the data set on WT mice (setting [8]) it was 1.64+/−0.09 mm. Moreover, the Aortic root growth result is on record as “selectively reduced growth; also recorded: significantly less than that of placebo-treated” in the data set on Fbn1^C1039G/+ mice (setting [9]) and “no significant effect” in the data set with WT mice (setting [9]). Besides, in the data set with ERK5, the ERK5 activation entry is given as “unchanged”. For the same compound, the Smad2 activation entry in the data set with Smad2 is “unchanged”.
